Experiments:
[1] = tested on: static and dynamic allodynia in rats (paw incision model); assay: Paw incision model for surgical pain, post-surgery administration; format: in vivo, rat
Description: (§1) Basically, in this animal model, an incision is made in the hind paw of the rats, which induces a reproducible and quantifiable mechanical hyperalgesia in the rats lasting several days. Rats are anesthetized, and the plantar surface of the right hind paw of each rat is incised through the skin and fascia. The wound is then closed, for example with sutures, and allowed to heal. The rats are placed into wire mesh bottom cages, allowing access to the underside of their paws. After habituation, tactile allodynia (or “static allodynia”) can be evaluated by touching the right hind paw plantar surface with von Frey hairs in ascending order of force (measured in grams) until a paw-withdrawal response (paw withdrawal threshold or “PWT”) is elicited. Dynamic allodynia can be evaluated by stoking the plantar surface of the right hind paw and measuring (in seconds) the amount of time it takes for a rat to withdraw its paw (paw withdrawal latency or “PWL”).
CP-101,606 was also tested post-surgically using the paw incision model, basically as described above. However, in this assay, rats are administered CP-101,606 (3, 10, or 30 mg/kg, s.c.), pregabalin (30 mg/kg, s.c.), or vehicle (s.c.) post-incision. A baseline is measured before incision and after incision, prior to drug. […] CP-101,606 produced a full reversal of static allodynia and a partial (approximately 40%) reversal of the dynamic subtype.

[2] = tested on: static and dynamic allodynia in rats (paw incision model); assay: Paw incision model for surgical pain, pre-surgery administration; format: in vivo, rat; conditions: for PWL (paw withdrawal latency) compared to vehicle / PWT (paw withdrawal threshold) compared to vehicle: 72 hours, pre-surgical 10 and 30 mg/kg CP-101,606, pregabalin 30 mg/kg s.c.
Description: as §1
In the pre-surgery administration assay, a PWT and PWL baseline is measured prior to drug administration and incision. The rats are then given drug (CP-101,606, at separate doses of 3, 10 or 30 mg/kg s.c.) or are given pregabalin (30 mg/kg s.c., as a positive control)), or vehicle (s.c.). The right hind paw each rat is then incised as described above. Measurements are then taken periodically, as described above.

[3] = molecular target: NMDA receptors comprised of NR1/NR2B subunits (Homo sapiens, UniProt Q05586+Q13224); conditions: selectivity between NMDA receptor subtypes; cited from earlier work
[4] = tested on: animal models of pain perception; conditions: literature (Bernardi 1996; Taniguchi 1997); cited from earlier work
[5] = post-incision administration, 30 mg/kg s.c.
[6] = post-incision administration, s.c.
[7] = pre-surgery administration, 30 mg/kg s.c.
[8] = pre-surgery administration, s.c.

NMDA receptors comprised of NR1/NR2B subunits, sequence (Q13224 27-1484, other chains not shown): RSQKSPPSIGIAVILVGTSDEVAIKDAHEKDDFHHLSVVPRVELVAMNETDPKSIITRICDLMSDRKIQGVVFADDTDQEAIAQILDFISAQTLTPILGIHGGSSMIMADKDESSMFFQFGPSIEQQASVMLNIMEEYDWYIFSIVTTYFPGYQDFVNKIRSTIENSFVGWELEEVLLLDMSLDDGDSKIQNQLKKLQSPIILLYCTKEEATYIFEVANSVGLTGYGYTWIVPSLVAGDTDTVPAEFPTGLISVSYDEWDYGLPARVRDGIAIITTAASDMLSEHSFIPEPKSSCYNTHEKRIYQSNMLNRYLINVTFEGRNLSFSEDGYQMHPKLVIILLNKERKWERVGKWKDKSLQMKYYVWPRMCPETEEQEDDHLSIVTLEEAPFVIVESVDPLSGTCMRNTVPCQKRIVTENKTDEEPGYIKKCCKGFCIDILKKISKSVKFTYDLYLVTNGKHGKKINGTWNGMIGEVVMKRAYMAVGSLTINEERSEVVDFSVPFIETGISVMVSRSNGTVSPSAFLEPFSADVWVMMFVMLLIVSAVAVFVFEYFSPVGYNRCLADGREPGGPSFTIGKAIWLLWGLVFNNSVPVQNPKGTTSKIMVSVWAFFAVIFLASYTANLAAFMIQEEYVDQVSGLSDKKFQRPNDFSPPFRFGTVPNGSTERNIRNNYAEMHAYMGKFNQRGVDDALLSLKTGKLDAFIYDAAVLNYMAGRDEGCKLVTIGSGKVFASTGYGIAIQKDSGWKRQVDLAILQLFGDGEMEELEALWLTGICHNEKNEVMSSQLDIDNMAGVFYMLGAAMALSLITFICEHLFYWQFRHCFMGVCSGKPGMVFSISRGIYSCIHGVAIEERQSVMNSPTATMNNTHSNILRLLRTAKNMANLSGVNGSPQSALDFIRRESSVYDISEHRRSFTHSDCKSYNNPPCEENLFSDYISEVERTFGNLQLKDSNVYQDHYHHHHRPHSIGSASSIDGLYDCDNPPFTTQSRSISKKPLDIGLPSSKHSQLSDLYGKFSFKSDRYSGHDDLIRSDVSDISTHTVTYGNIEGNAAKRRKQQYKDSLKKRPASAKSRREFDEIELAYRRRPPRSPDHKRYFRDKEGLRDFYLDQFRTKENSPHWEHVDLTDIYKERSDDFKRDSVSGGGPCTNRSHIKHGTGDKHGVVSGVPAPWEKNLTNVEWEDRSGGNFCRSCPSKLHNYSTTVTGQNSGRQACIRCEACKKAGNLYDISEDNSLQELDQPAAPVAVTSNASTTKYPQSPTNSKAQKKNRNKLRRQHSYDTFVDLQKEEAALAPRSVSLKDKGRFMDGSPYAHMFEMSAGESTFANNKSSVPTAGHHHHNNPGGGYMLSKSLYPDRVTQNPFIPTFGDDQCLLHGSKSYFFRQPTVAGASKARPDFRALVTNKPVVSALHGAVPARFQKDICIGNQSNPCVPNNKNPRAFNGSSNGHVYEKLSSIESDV

SMILES: Oc1ccc2c(c1)OC[C@@H](N1CCC(O)(c3ccc(F)cc3)CC1)[C@H]2O (relative stereo)
- melting point: 159 to 160 °C

SMILES: C[C@@H]([C@@H](O)c1ccc(O)cc1)N1CCC(O)(c2ccccc2)CC1 [CP-101,606, (+)-(1S, 2S)-1-(4-hydroxy-phenyl)-2-(4-hydroxy-4-phenylpiperidino)-1-propanol]
- duration of effect, dynamic allodynia [1, 5]: two
- duration of effect, static allodynia [1, 5]: three
- time of peak effect, dynamic allodynia [1, 5]: two
- effect on static and dynamic subtypes of allodynia ([1]; post-incision administration, 3, 10 or 30 mg/kg s.c., rats): dose-dependently diminished both static and dynamic subtypes of allodynia
- MED, dynamic allodynia [1, 6]: 30 mg/kg
- MED, static allodynia [1, 6]: 10 mg/kg
- reversal of static allodynia [1, 6]: full reversal
- reversal of dynamic allodynia ([1]; post-incision administration, s.c., partial reversal): approximately 40%
- PWL (paw withdrawal latency) compared to vehicle [2]: longer
- PWT (paw withdrawal threshold) compared to vehicle [2]: higher
- duration of antiallodynic action ([2]; following pre-surgical administration): at least 48 hours
- latest time at which a preventive effect was seen ([2]; post surgery, pre-surgical administration): 72 h
- time of peak effect, dynamic allodynia [2, 7]: two
- time of peak effect, static allodynia [2, 7]: two
- effect on static and dynamic subtypes of allodynia ([2]; pre-surgery administration, 3, 10 or 30 mg/kg s.c., rats): dose-dependently blocked both static and dynamic subtypes of allodynia
- blockade of dynamic allodynia [2, 8]: near full blockade
- blockade of static allodynia [2, 8]: full blockade
- MED (minimum effective dosage), dynamic allodynia ([2]; pre-surgery administration, s.c., PWL): 10 mg/kg
- MED (minimum effective dosage), static allodynia ([2]; pre-surgery administration, s.c., PWT (von Frey hairs)): 10 mg/kg

SMILES: CC(C(O)c1ccc(O)cc1)N1CCC(Cc2ccccc2)CC1 (stereo not drawn) [Ifenprodil, ifenprodil]
- blockade of ion current, NR1/NR2B compared to NR1/NR2A, NR2C, or NR2D subunits [3]: more potent and efficacious
- analgesic activity [4]: significant analgesic activity

SMILES: CC(C)C[C@H](CN)CC(=O)O [pregabalin, reference compound]
- PWL (paw withdrawal latency) compared to vehicle [2]: longer
- PWT (paw withdrawal threshold) compared to vehicle [2]: higher
